We go through 38 compounds from US6525059B1, “Substituted pyrazoles as p38 kinase inhibitors” (G. D. Searle & Company, priority 1998, dated 2003).

The target in series [1] is T1, human GST-p38 kinase alpha (Homo sapiens, UniProt Q16539).
T1 construct: The coding region of the human p38a cDNA was obtained by PCR-amplification from RNA isolated from the human monocyte cell line THP.1; made in house; host or cells: E. coli DH10B
The experiment in a line: p38 kinase in vitro assay, second format, phosphorylation of EGFRP with 33P-ATP. The note with it: Table 10, 10% DMSO; @ 1.0 hour; read-out: p38α Kinase Assay IC50. The series is classed as biochemical. In outline:
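Activated human GST-p38α (pre-activated with GST-MKK6, 1 h, 30 °C) phosphorylates EGFR 21-mer peptide (200 μM) with 50 μM ATP plus γ-33P-ATP, pH 7.5, 60 min at room temperature. Unreacted ATP removed by AG 1×8 resin; supernatant scintillation-counted.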

The test system of series [2] is human TNF. The series is described as follows: TNF inhibition: human whole blood assay. Format: cell-based. The following applies: Homo sapiens, Table 10, human whole blood, LPS; read-out: TNF Inhibition-Human Whole Blood Assay.
The test system of series [3] is TNF-α. The experiment in a line: Rat assay: LPS-challenged rats, serum TNF-α by ELISA. The series is classed as in vivo. The following applies: Rattus norvegicus, po; for inhibition in vivo at 5 mg/kg: Table 10, dose 5.0 mg/kg; for inhibition in vivo at 20 mg/kg: Table 10, dose 20.0 mg/kg. For orientation: An ELISA detects its analyte on a solid surface through an enzyme-linked reagent.

The subject of series [4] is TNF-α. The experiment in a line: LPS stimulation of TNF production by U937 cells. The following applies: Homo sapiens, U-937, LPS-stimulated U937 cells; read-out: U937 Cell Assay IC50. Format: cell-based, human. An outline of the steps:
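PMA-differentiated human U937 cells (20 ng/ml PMA, 24 h, then 24-48 h rest) at 2 million cells/ml, 0.1% DMSO final, stimulated with E. coli LPS (100 ng/ml final) for 4 h at 37° C. TNF-α in medium measured by ELISA; IC50 in μM.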

Where [5] appears, read: read-out: Rat LPS Assay % Inhibition.

T1 sequence (Q16539 whole entry): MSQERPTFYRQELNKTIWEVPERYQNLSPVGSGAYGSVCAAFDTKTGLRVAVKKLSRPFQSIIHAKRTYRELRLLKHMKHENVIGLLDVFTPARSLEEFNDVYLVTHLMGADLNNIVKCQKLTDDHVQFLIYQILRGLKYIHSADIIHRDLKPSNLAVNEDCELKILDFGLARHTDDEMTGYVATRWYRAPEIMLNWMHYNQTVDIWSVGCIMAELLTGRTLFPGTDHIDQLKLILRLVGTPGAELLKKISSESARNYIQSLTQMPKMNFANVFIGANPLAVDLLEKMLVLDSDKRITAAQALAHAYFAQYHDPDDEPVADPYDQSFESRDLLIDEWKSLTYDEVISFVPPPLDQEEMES

Turning to `COC(=O)CNc1[nH]nc(-c2ccc(Cl)cc2)c1-c1ccncc1` [Example A-429], the melting point – broadly, the temperature, or range, at which the solid turns liquid – lay within 195.4 to 196.8 °C. For the same compound, the IC50 in series [1] turned out to be 56.3 µM.

`CCc1ccc(C(=O)C(=C2SCS2)c2ccncc2)cc1` [Example A-404] yielded a melting point of 174.8 to 175 °C. Also, the IC50 in series [2] is above 25 µM. Besides, the IC50 in series [1] stood at 4.13 µM.

In turn, `Sc1[nH]nc(-c2ccc(Cl)cc2)c1-c1ccncc1` [Example A-453] returned a melting point of 266.3 to 268.9 °C. Moreover, the IC50 in series [1] worked out at 10.2 µM.

As to `COc1ccc(-c2n[nH]c(N3CCN(C)CC3)c2-c2ccncc2)cc1` [Example A-415], the melting point is 259 to 260.2 °C. In addition, in series [3] (setting [5]), the inhibition in vivo at 5 mg/kg amounted to 17%. This compound also displayed an inhibition in vivo at 84 mg/kg in series [3] (Table 10, dose […]) of 84%. The IC50 in series [2] is 0.51 µM.

Compound `CC(C)(C)OC(=O)N1CCC([S+]([O-])c2[nH]nc(-c3ccc(Cl)cc3)c2-c2ccncc2)CC1` (stereo not drawn) [Example A-464] showed a melting point of 215.8 to 215.9 °C. Also, the IC50 in series [1] was above 100 µM.

The compound `Fc1ccc(-c2[nH]nc(Nc3ccccc3)c2-c2ccncc2)cc1` [Example A-20, 5-(4-Fluorophenyl)-N-phenyl-4-(4-pyridinyl)-1H-pyrazol-3-amine] returned a melting point of 218 to 219 °C. The IC50 in series [4] is 1.09 µM.

With `CC(C)(C)OC(=O)N1CCC(S(=O)(=O)c2[nH]nc(-c3ccc(Cl)cc3)c2-c2ccncc2)CC1` [Example A-465], the melting point fell in the range of 228 to 230.8 °C. Also, in series [1], the IC50 was above 100 µM.

Consider `O=C(O)CNc1[nH]nc(-c2ccc(Cl)cc2)c1-c1ccncc1.[Li+]` [Example A-430], for which the melting point was above 300 °C. Besides, in series [1], the IC50 was above 100 µM.

Consider `CC(C)(C)OC(=O)N1CCC(Sc2[nH]nc(-c3ccc(Cl)cc3)c2-c2ccncc2)CC1` [Example A-458], for which the melting point was in the range of 220.9 to 221 °C. In addition, the IC50 in series [2] was above 25 µM. Moreover, in series [1], the IC50 is 8.7 µM.

For the compound `C=Cc1ccc(-c2[nH]nc(N3CCN(C)CC3)c2-c2ccncc2)cc1` [Example A-418, 1-[5-(4-ethenylphenyl)-4-(4-pyridinyl)-1H-pyrazol-3-yl]-4-methylpiperazine], the melting point was above 300 °C. The IC50 in series [1] was found to be 0.12 µM.

For the compound `Cc1ccc(-c2n[nH]c(N3CCN(C)CC3)c2-c2ccncc2)cc1C` [Example A-410, 1-[5-(3,4-dimethylphenyl)-4-(4-pyridinyl)-1H-pyrazol-3-yl]-4-methylpiperazine], the melting point is 270.9 to 272.7 °C. Also, the inhibition in vivo at 5 mg/kg in series [3] (setting [5]) was found to be 11%. Further, the inhibition in vivo at 20 mg/kg in series [3] is 0%. Further, in series [1], the IC50 stood at 0.21 µM.

In the case of `Cc1cccc(-c2n[nH]c(N3CCN(C)CC3)c2-c2ccncc2)c1` [A-389, Step 4], the melting point is 261.9 to 262 °C. Moreover, the inhibition in vivo at 5 mg/kg in series [3] (setting [5]) amounted to 55%. Besides, the inhibition in vivo at 20 mg/kg in series [3] was found to be 94%. In addition, the IC50 in series [1] was determined as 0.16 µM.

In turn, `COc1ccc(CS(=O)(=O)c2[nH]nc(-c3ccc(F)cc3)c2-c2ccncc2)cc1` [Example A-467] yielded a melting point of 241.9 to 242 °C. Besides, the IC50 in series [1] amounted to 21.4 µM.

As to `C[S+]([O-])c1[nH]nc(-c2ccc(F)cc2)c1-c1ccncc1` (stereo not drawn) [Example A-436], the melting point is 262.9 °C. In addition, the IC50 in series [2] is 4.61 µM. The IC50 in series [1] was determined as 2.81 µM.

`CC(C)(C)OC(=O)NCCOc1[nH]nc(-c2ccc(Cl)cc2)c1-c1ccncc1` [Example A-445] yielded a melting point above 300 °C. Moreover, the IC50 in series [2] is above 25 µM. In series [1], the IC50 is 1.08 µM.

`COc1ccc(C(=O)C(=C2SCS2)c2ccncc2)cc1` [Example A-399] yielded a melting point of 203 to 204.1 °C. For the same compound, the IC50 in series [1] is 22.9 µM.

As to `Clc1ccc(-c2n[nH]c(SCCOC3CCCCO3)c2-c2ccncc2)cc1` (stereo not drawn) [Example A-474], the melting point fell in the range of 163.2 to 163.5 °C. Moreover, the inhibition in vivo at 20 mg/kg in series [3] was determined as 59%. Also, the IC50 in series [2] is 0.97 µM.

As to `O=C1CN(Cc2ccccc2)CC(=O)N1c1[nH]nc(-c2ccc(Cl)cc2)c1-c1ccncc1` [Example A-428], the melting point was above 300 °C. For the same compound, the IC50 in series [2] turned out to be 0.68 µM. Also, in series [1], the IC50 stood at 0.4 µM.

Turning to `CN1CCN(c2[nH]nc(-c3ccc(OC(F)(F)F)cc3)c2-c2ccncc2)CC1` [Example A-411, 1-[5-(4-trifluoromethoxyphenyl)-4-(4-pyridinyl)-1H-pyrazol-3-yl]-4-methylpiperazine], the melting point lay within 221 to 221.2 °C. In series [3] (setting [5]), the inhibition in vivo at 5 mg/kg was 40%. The compound also registered an inhibition in vivo at 20 mg/kg in series [3] of 0%. Also, the IC50 in series [1] was found to be 3.37 µM.

`Cc1cc(-c2[nH]nc(N3CCN(C)CC3)c2-c2ccncc2)ccc1Br` [Example A-420, 1-[5-(4-bromo-3-methylphenyl)-4-(4-pyrdinyl)-1H-pyrazol-3-yl]-4-methylpiperazine]: the melting point was 294.7 °C (dec.). Further, the inhibition in vivo at 5 mg/kg in series [3] (setting [5]) amounted to 47%. Further, the inhibition in vivo at 20 mg/kg in series [3] is 91%. Moreover, in series [1], the IC50 was determined as 0.32 µM.

`COc1ccc(C[S+]([O-])c2[nH]nc(-c3ccc(F)cc3)c2-c2ccncc2)cc1` (stereo not drawn) [Example A-466] gave a melting point of 189.5 °C. Also, the IC50 in series [1] was 20.1 µM.

Turning to `Clc1ccc(-c2n[nH]c(SCc3nc4ccccc4[nH]3)c2-c2ccncc2)cc1` [Example A-470], the melting point was 257.7 °C. In addition, the IC50 in series [1] was 10.4 µM.

As for `O=C1OCCC1CSc1[nH]nc(-c2ccc(Cl)cc2)c1-c1ccncc1` (stereo not drawn) [Example A-472], the melting point is 224.2 to 225.9 °C. In addition, in series [2], the IC50 is above 25 µM.

Turning to `COc1ccc(CSC(SCc2ccc(OC)cc2)=C(C(=O)c2ccc(F)cc2)c2ccncc2)cc1` [Example A-450], the melting point was in the range of 118.5 to 120.6 °C. For the same compound, the IC50 in series [1] was above 100 µM.

For the compound `Cc1ccccc1C(=O)C(=C1SCS1)c1ccncc1` [Example A-392], the melting point was 126.5 to 126.6 °C. Besides, the IC50 in series [1] is 29.7 µM.

In turn, `COc1ccc(COc2[nH]nc(-c3ccc(Cl)cc3)c2-c2ccncc2)cc1` [Example A-444] registered a melting point of 229.1 to 229.2 °C. The IC50 in series [1] was found to be 6.99 µM.

The compound `CC(C#N)Sc1[nH]nc(-c2ccc(Cl)cc2)c1-c1ccncc1` (stereo not drawn) [Example A-477] had a melting point of 211.1 to 212.8 °C. The IC50 in series [1] worked out at 0.34 µM.

`Fc1ccc(-c2n[nH]c(S)c2-c2ccncc2)cc1` [Example A-454] returned a melting point of 261.3 to 263.9 °C. In addition, in series [1], the IC50 was 8.41 µM.

The compound `O=C(C(=C1SCS1)c1ccncc1)c1cccc(Br)c1` [Example A-393] came in with a melting point of 159.6 to 159.7 °C. Further, in series [1], the IC50 came out at 2.32 µM.

The compound `Cc1ccc(C(=O)C(=C2SCS2)c2ccncc2)cc1C` [Example A-394] gave a melting point of 198.8 to 198.9 °C. Besides, the IC50 in series [1] came out at 9.11 µM.

In turn, `CN1CCC(Sc2[nH]nc(-c3ccc(Cl)cc3)c2-c2ccncc2)CC1` [Example A-468, 3-(4-chlorophenyl)-5-[(1-methylpiperidin-4-yl)-thio]-4-pyridin-4-yl-1H-pyrazole] returned a melting point of 227.7 °C. Moreover, the inhibition in vivo at 1 mg/kg in series [3] (Table 10, dose 1.0 mg/kg, read-out: Rat LPS Assay % Inhibition) turned out to be 46%. In series [3] (setting [5]), the inhibition in vivo at 5 mg/kg worked out at 50%. In series [3], this compound came in with an inhibition in vivo at 20 mg/kg of 94%. For the same compound, in series [1], the IC50 was 0.3 µM.

Regarding `CN(C)c1ccc(C(=O)C(=C2SCS2)c2ccncc2)cc1` [Example A-402], the melting point lay in the range of 197.3 to 202.2 °C. In series [1], the IC50 came to 28.9 µM.

On to `CCc1ccc(-c2[nH]nc(N3CCN(C)CC3)c2-c2ccncc2)cc1` [Example A-419, 1-[5-(4-ethylphenyl)-4-(4-pyridinyl)-1H-pyrazol-3-yl]-4-methylpiperazine], for which the melting point lay in the range of 221.6 to 222.6 °C. Moreover, in series [3] (setting [5]), the inhibition in vivo at 5 mg/kg amounted to 24%. Moreover, the inhibition in vivo at 10 mg/kg in series [3] (Table 10, dose 10.0 mg/kg) was determined as 58%. Besides, the IC50 in series [1] was 1.31 µM.

`COc1ccc(C(=O)C(=C2SCS2)c2ccncc2)cc1Cl` [Example A-397]: the melting point lay in the range of 191.5 to 192.5 °C. Also, the IC50 in series [1] was 30 µM.

For `Fc1ccc(-c2[nH]nc(-c3ccccc3)c2-c2ccncc2)cc1` [Example A-21, 4-[5-(4-fluorophenyl)-3-phenyl-1H-pyrazol-4-yl]pyridine], the melting point lay in the range of 265 to 267 °C. The IC50 in series [4] was 0.077 µM.

For the compound `CSc1[nH]nc(-c2ccc(F)cc2)c1-c1ccncc1` [Example A-434], the melting point amounted to 249.9 °C. In addition, in series [1], the IC50 stood at 5.84 µM.

In turn, `CN1CCN(c2n[nH]c(-c3ccc(C#N)cc3)c2-c2ccncc2)CC1` [Example A-412, 1-[5-(4-cyanophenyl)-4-(4-pyridinyl)-1H-pyrazol-3-yl]-4-methylpiperazine] displayed a melting point above 300 °C. In series [3] (setting [5]), the inhibition in vivo at 5 mg/kg worked out at 0%. Besides, the inhibition in vivo at 20 mg/kg in series [3] was determined as 0%. Further, the IC50 in series [1] was found to be 2.15 µM.

As for `NCCSc1[nH]nc(-c2ccc(Cl)cc2)c1-c1ccncc1` [Example A-480], the melting point fell in the range of 186.8 to 187.8 °C. Further, the IC50 in series [2] came out at 0.16 µM.
